# Test system: R/R non-GCB DLBCL
# Test: Compound 1 in combination with anti-CD20 antibody in patients with R/R non-GCB DLBCL
# Type: in vivo, human
# Settings: for unadjusted ORR: non-GCB DLBCL
# Method: A total of 121 patients with R/R non-GCB DLBCL were recruited in four Compound 1 treatment studies that were conducted at a similar time period. Two of the four studies were Compound 1 monotherapy (n=79) and two were Compound 1 combined with an anti-CD20 antibody therapy (n=42). Similar inclusion and exclusion criteria and response evaluation criteria were used across all studies. Fifty-six non-GCB patients were further subtyped by gene expression profiling (GEP) using the HTG EdgeSeq DLBCL Cell of Origin Assay. The expression of approximately 90 lymphoma-associated genes from the HTG GEP assay were analyzed by R package limma for correlation with response to Compound 1 treatment. Seventy-seven patient samples were tested by next-generation sequencing (NGS) with a panel of genes. Chi-square test was used to evaluate the correlation between mutations and the objective response rate (ORR).
# Combination therapy schedule 1: Compound 1 was administered orally every day in each cycle at 160 mg BID in 28-day cycles, in combination with obinutuzumab, in patients with R/R non-GCB DLBCL. Obinutuzumab was administered for up to 6 cycles consistent with the U.S. label regimen (100 mg at Day 1 Cycle 1, 1000 mg at Day 8 and Day 15, 900 mg at Day 2 Cycle 1 followed by 1000 mg on day one of cycles 2-6).
# Combination therapy schedule 2: Compound 1 was administrated orally every day in each cycle at 160 mg BID in 28-day cycles, in combination with rituximab, in patients with R/R non-GCB DLBCL. Rituximab was administered at 375 mg/m2 intravenously on Cycle 1 Days 1, 8, 15, 22, and on Day 1 of Cycles 4, 6, 8, 10. Compound 1 was administered at least 30 minutes prior to the initiation of the rituximab infusion.
# 42 patients with non-GCB DLBCL were subjected to Compound 1 plus anti-CD20 antibody Combination therapy schedule 1 or 2.
# [1] = combination therapy Total (N = 42), ABC Subtype of DLBCL Patients
# [2] = combination therapy Total (N = 42), CD79B ITAM_Mut
# [3] = combination therapy Total (N = 42), CD79B ITAM_WT
# [4] = combination therapy Total (N = 42), CD79B_Mut
# [5] = combination therapy Total (N = 42), CD79B_WT
# [6] = combination therapy Total (N = 42), MYD88_L265P
# [7] = combination therapy Total (N = 42), MYD88_L265P/CD79B_Mut
# [8] = combination therapy Total (N = 42), MYD88_WT
# [9] = combination therapy Total (N = 42), NOTCH1_Mut
# [10] = combination therapy Total (N = 42), NOTCH1_WT
# [11] = combination therapy Total (N = 42), Non-GCB DLBCL Patients
# [12] = combination therapy Total (N = 42), Non-GCB DLBCL Patients with Sequence Available
# [13] = combination therapy Total (N = 42), Other (not MYD88_L265P/CD79B_Mut)
# [14] = combination therapy Total (N = 42), Patients with Sequence Available
# [15] = plus obinutuzumab (N = 22), ABC Subtype of DLBCL Patients
# [16] = plus obinutuzumab (N = 22), CD79B ITAM_Mut
# [17] = plus obinutuzumab (N = 22), CD79B ITAM_WT
# [18] = plus obinutuzumab (N = 22), CD79B_Mut
# [19] = plus obinutuzumab (N = 22), CD79B_WT
# [20] = plus obinutuzumab (N = 22), MYD88_L265P
# [21] = plus obinutuzumab (N = 22), MYD88_L265P/CD79B_Mut
# [22] = plus obinutuzumab (N = 22), MYD88_WT
# [23] = plus obinutuzumab (N = 22), NOTCH1_Mut
# [24] = plus obinutuzumab (N = 22), NOTCH1_WT
# [25] = plus obinutuzumab (N = 22), Non-GCB DLBCL Patients
# [26] = plus obinutuzumab (N = 22), Non-GCB DLBCL Patients with Sequence Available
# [27] = plus obinutuzumab (N = 22), Other (not MYD88_L265P/CD79B_Mut)
# [28] = plus obinutuzumab (N = 22), Patients with Sequence Available
# [29] = plus rituximab (N = 20), ABC Subtype of DLBCL Patients
# [30] = plus rituximab (N = 20), CD79B ITAM_Mut
# [31] = plus rituximab (N = 20), CD79B ITAM_WT
# [32] = plus rituximab (N = 20), CD79B_Mut
# [33] = plus rituximab (N = 20), CD79B_WT
# [34] = plus rituximab (N = 20), MYD88_L265P
# [35] = plus rituximab (N = 20), MYD88_L265P/CD79B_Mut
# [36] = plus rituximab (N = 20), MYD88_WT
# [37] = plus rituximab (N = 20), NOTCH1_Mut
# [38] = plus rituximab (N = 20), NOTCH1_WT
# [39] = plus rituximab (N = 20), Non-GCB DLBCL Patients
# [40] = plus rituximab (N = 20), Non-GCB DLBCL Patients with Sequence Available
# [41] = plus rituximab (N = 20), Other (not MYD88_L265P/CD79B_Mut)
# [42] = plus rituximab (N = 20), Patients with Sequence Available
structure (smiles),measurement,setting,value
"C=CC(=O)N1CCC([C@@H]2CCNc3c(C(N)=O)c(-c4ccc(Oc5ccccc5)cc4)nn32)CC1 [Compound 1, (S)-7-(1-acryloylpiperidin-4-yl)-2-(4-phenoxyphenyl)-4,5,6,7-tetra-hydropyrazolo[1,5-a]pyrimidine-3-carboxamide]",ORR,"GEP-confirmed activated B-cell DLBCL, first of the two combo-therapies (obinutuzumab)",50%
same,ORR,"GEP-confirmed activated B-cell DLBCL, second of the two combo-therapies (rituximab)",40%
same,ORR,[1],45.5
same,Response/Patients,[1],5/11
same,ORR,[2],83.3
same,Response/Patients,[2],5/6
same,Difference in ORR (95% CI),"combination therapy Total (N = 42), CD79B ITAM_Mut vs CD79B ITAM_WT",61.1
same,ORR,[3],22.2
same,Response/Patients,[3],6/27
same,ORR,[4],75.0
same,Response/Patients,[4],6/8
same,Difference in ORR (95% CI),"combination therapy Total (N = 42), CD79B_Mut vs CD79B_WT",55.0
same,ORR,[5],20.0
same,Response/Patients,[5],5/25
same,ORR,[6],66.7
same,Response/Patients,[6],4/6
same,Difference in ORR (95% CI),"combination therapy Total (N = 42), MYD88_L265P vs MYD88_WT",40.7
same,ORR,[7],75.0
same,Response/Patients,[7],3/4
same,Difference in ORR (95% CI),"combination therapy Total (N = 42), MYD88_L265P/CD79B_Mut vs Other",47.4
same,ORR,[8],25.9
same,Response/Patients,[8],7/27
same,ORR,[9],40.0
same,Response/Patients,[9],2/5
same,Difference in ORR (95% CI),"combination therapy Total (N = 42), NOTCH1_Mut vs NOTCH1_WT",7.9
same,ORR,[10],32.1
same,Response/Patients,[10],9/28
same,ORR,[11],28.6
same,Response/Patients,[11],12/42
same,ORR,[12],33.3
same,Response/Patients,[12],11/33
same,ORR,[13],27.6
same,Response/Patients,[13],8/29
same,ORR,[14],35.3
same,Response/Patients,[14],12/34
same,unadjusted ORR,first of the two combo-therapies (obinutuzumab),22.7%
same,unadjusted ORR,second of the two combo-therapies (rituximab),35%
same,ORR,[15],50.0
same,Response/Patients,[15],3/6
same,ORR,[16],100.0
same,Response/Patients,[16],3/3
same,Difference in ORR (95% CI),"plus obinutuzumab (N = 22), CD79B ITAM_Mut vs CD79B ITAM_WT, in %",91.7
same,ORR,[17],8.3
same,Response/Patients,[17],1/12
same,ORR,[18],100.0
same,Response/Patients,[18],3/3
same,Difference in ORR (95% CI),"plus obinutuzumab (N = 22), CD79B_Mut vs CD79B_WT, in %",91.7
same,ORR,[19],8.3
same,Response/Patients,[19],1/12
same,ORR,[20],100.0
same,Response/Patients,[20],3/3
same,Difference in ORR (95% CI),"plus obinutuzumab (N = 22), MYD88_L265P vs MYD88_WT, in %",91.7
same,ORR,[21],100.0
same,Response/Patients,[21],3/3
same,Difference in ORR (95% CI),"plus obinutuzumab (N = 22), MYD88_L265P/CD79B_Mut vs Other, in %",91.7
same,ORR,[22],8.3
same,Response/Patients,[22],1/12
same,ORR,[23],66.7
same,Response/Patients,[23],2/3
same,Difference in ORR (95% CI),"plus obinutuzumab (N = 22), NOTCH1_Mut vs NOTCH1_WT",50.0
same,ORR,[24],16.7
same,Response/Patients,[24],2/12
same,ORR,[25],22.7
same,Response/Patients,[25],5/22
same,ORR,[26],26.7
same,Response/Patients,[26],4/15
same,ORR,[27],8.3
same,Response/Patients,[27],1/12
same,ORR,[28],31.3
same,Response/Patients,[28],5/16
same,ORR,[29],40.0
same,Response/Patients,[29],2/5
same,ORR,[30],66.7
same,Response/Patients,[30],2/3
same,Difference in ORR (95% CI),"plus rituximab (N = 20), CD79B ITAM_Mut vs CD79B ITAM_WT",33.3
same,ORR,[31],33.3
same,Response/Patients,[31],5/15
same,ORR,[32],60.0
same,Response/Patients,[32],3/5
same,Difference in ORR (95% CI),"plus rituximab (N = 20), CD79B_Mut vs CD79B_WT",29.2
same,ORR,[33],30.8
same,Response/Patients,[33],4/13
same,ORR,[34],33.3
same,Response/Patients,[34],1/3
same,Difference in ORR (95% CI),"plus rituximab (N = 20), MYD88_L265P vs MYD88_WT",−6.7
same,ORR,[35],0.0
same,Response/Patients,[35],0/1
same,Difference in ORR (95% CI),"plus rituximab (N = 20), MYD88_L265P/CD79B_Mut vs Other",−41.2
same,ORR,[36],40.0
same,Response/Patients,[36],6/15
same,ORR,[37],0.0
same,Response/Patients,[37],0/2
same,Difference in ORR (95% CI),"plus rituximab (N = 20), NOTCH1_Mut vs NOTCH1_WT",−43.8
same,ORR,[38],43.8
same,Response/Patients,[38],7/16
same,ORR,[39],35.0
same,Response/Patients,[39],7/20
same,ORR,[40],38.9
same,Response/Patients,[40],7/18
same,ORR,[41],41.2
same,Response/Patients,[41],7/17
same,ORR,[42],38.9
same,Response/Patients,[42],7/18
